Results on three molecules are retold here after patent US20110319329A1, “USE OF SO[…] IN CLUSTER HEADACHE” (priority 2007, published 2011).

Where two headings read alike, the source gives them in different places. Numbered stars: 1 amine (or outer) side, 2 acyl side, 3 side chain; on linkers, the order of the positions; unused ones are H or OH. Square brackets hold non-standard residues; d marks the D form. Side chains are listed from the residue outwards. Peptide text beside a SMILES is read from it. * marks the point of attachment. Ethylenediamine = C(CN[*:2])N[*:1]; Hyp = O=C(O)[C@@H]1C[C@@H](O)CN1; Phg = N[C@H](C(=O)O)c1ccccc1; CO = O=C([*:1])[*:2]; Bn = c1ccc(C*)cc1

The nature of series [1]: partition coefficient (lipophilicity).
The conditions of series [2]: cited from earlier work.

Usually logP stands for the decadic logarithm of the partition coefficient of the neutral form, usually between octanol and water. Higher therefore signals higher lipophilicity. With `NCCCC[C@@H]1NC(=O)[C@@H](Cc2c[nH]c3ccccc23)NC(=O)[C@H](c2ccccc2)NC(=O)[C@@H]2C[C@@H](OC(=O)NCCN)CN2C(=O)[C@H](Cc2ccccc2)NC(=O)[C@H](Cc2ccc(OCc3ccccc3)cc2)NC1=O` [pasireotide, cyclo[{4-(NH2—C2H4—NH—CO—O-)Pro}-Phg-DTrp-Lys-Tyr(4-Bzl)-Phe]] (cyclo([Hyp]([CO-Ethylenediamine])[Phg][dW]KY(Bn)F); ring closure inferred), the logP in series [1] came to 2.7.

For `C[C@@H](O)[C@@H]1NC(=O)[C@H](CCCCN)NC(=O)[C@@H](Cc2c[nH]c3ccccc23)NC(=O)[C@H](Cc2ccccc2)NC(=O)[C@@H](NC(=O)[C@H](N)Cc2ccccc2)CSSC[C@@H](C(=O)N[C@H](CO)[C@@H](C)O)NC1=O` [octreotide], the half-life entry in series [2] (octapeptide analog, can be given subcutaneously) was “approximately 1.5 hours”. The logP in series [1] was found to be 5.5.

In the case of somatostatin, the half-life entry in series [2] (native somatostatin, necessitates intravenous infusion) is “several minutes”.
